“Also recorded” adds a separate entry of the source. Where two headings read alike, the source gives them in different places. Ends that are not written are not given here.
Tests used:
[1] = tested on: LTP in mouse hippocampal slices impaired by Aβ(1–42) oligomers; experiment: Ex vivo hippocampal slice LTP electrophysiology; format: cell-based
Text: We investigated whether 7 could protect against the synaptic plasticity damage caused by Aβ(1–42) oligomers by using a hippocampus slice LTP model. LTP, a correlate of learning and memory has been repeatedly shown to be impaired by Aβ(1–42) oligomers. As negative control, substance 11 was applied. The experimenters were blind to the compounds tested.
These observations indicate the significant protective effect of 7 (Figure 12D). To test the effects of valency, LTP experiments were repeated with 8 under the same conditions.
Via standard procedures, 350-µm-thick transverse hippocampal slices were prepared from the brain of 7-months-old mice (CD1, Animal Breeding Facility, University of Szeged) with a McIlwain tissue chopper (Campden Instruments, Loughborough, UK). Slices were incubated in standard artificial cerebrospinal fluid (ACSF) at ambient temperature for 60 min, during constant gassing with 95% O2–5% CO2. The ACSF contained (mM): NaCl, 130; KCl, 3.5; CaCl2, 2; MgCl2, 2; NaH2PO4, 0.96; NaHCO3, 24; and D-glucose, 10 (pH 7.4). Individual slices were transferred to a 3D-MEA chip with 60 tip-shaped and 60-μm-high electrodes spaced at 100 μm (Ayanda Biosystems, S.A., Lausanne, Switzerland). The slice was continuously perfused with oxygenated ACSF (1.5 ml min^−1 at 34 °C) containing 720 nM Aβ(1–42) oligomers and/or 950 nM ligand throughout the recording session. Data were recorded with a standard, commercially available MEA setup (Multi Channel Systems MCS GmbH, Reutlingen, Germany). The Schaffer-collateral was stimulated by injecting a biphasic current waveform (−100/+100 μs) through one selected electrode at 0.033 Hz. Care was taken to choose the stimulating electrode in the same region from one slice to the other. The peak-to-peak amplitudes of fEPSPs at the stratum pyramidale and stratum radiatum of CA1 were analyzed. After a 30-min incubation period, the threshold and the maximum of stimulation intensity for evoke responses was determined. To evoke responses, 30% of the maximal stimulation intensity was used. LTP was induced by applying a theta-burst stimulation (TBS) pattern at the maximal stimulation intensity. The TBS comprised four trains administered at 20-s intervals with 10 bursts given at 5 Hz per train and 4 pulses at 100 Hz per burst. Statistical analysis was carried out by using two-tailed Student's t-test. For representative raw data see Figure S12.

Aβ oligomers [2] = target: T1, Aβ oligomers (Homo sapiens, UniProt P05067); experiment: Isothermal titration calorimetry (ITC) with Aβ oligomers; format: binding
T1 construct: a depsipeptide derivative of Aβ(1–42) was utilized; made in house; host or cells: chemical peptide synthesis (no expression host)
Experimental: (§1) Binding of 7 to the Aβ oligomers was monitored by means of isothermal titration calorimetry (ITC). […] The titrations were run at 288 K in order to improve the signal to noise ratio, and just above the precipitation limit as the ITC method is sensitive to the thermal noise caused by the stirring of large particles. […] These values strongly supported tight binding between the Aβ oligomer species and 7.
Isothermal titrations were performed with a Microcal VP-ITC microcalorimeter. The binding experiments were performed in PBS pH 7.4. The buffer solution was degassed. The concentrations of the ligands and Aβ were corrected for the material content. In individual titrations, 10 μL of ligand was injected from the computer-controlled 300-μL microsyringe at intervals of 300 s into the Aβ oligomer solution dissolved in the same buffer as the ligand. The microsyringe stirring was set to 295 rpm. All measurements were made at 288 K. The Aβ concentrations in the cell were either 72 μM or 36 μM, and the concentrations of 7 were 175 μM and 222 μM respectively. The total ligand concentration was set in the syringe so that the titration stopped when the precipitation became excessive. Control experiments were performed by injecting the ligand into a cell containing buffer with no target, and the heats of dilution were subtracted from those measured in the presence of Aβ. Titrations were also performed with buffer in the syringe and Aβ oligomer sample in the cell to check for the heat response of Aβ dilution itself. The dilution heat of the Aβ oligomer samples was constant and negligible. Since the target is inherently inhomogeneous, and an a priori model of the binding events is not available,. the experimental data were fitted to the two independent site binding model by using a nonlinear least-squares procedure, with ΔHb, ΔHb', Ka, Ka' (association constants), N and N' (number of binding sites for monomer), as adjustable parameters. The exothermic peaks appearing after the fully precipitated phase was reached, were omitted from the regression.

Aβ oligomers [3] = target: T1, Aβ oligomers; experiment: Ligand-induced precipitation during ITC titration, followed by DLS; details: 72 μM Aβ oligomer
Experimental: as §1
For DLS measurements, 500 µL Aβ(1–42) solution (c = 72 µM) was prepared in PBS, and placed in a low–volume sizing cell. Size distribution was measured at 25°C on a Malvern Zetasizer Nano ZS Instrument (Malvern Instruments Ltd. Worcestershire, UK) equipped with a He-Ne laser (633 nm) by means of Non-Invasive Back Scatter (NIBS®) technology, which involves detection of the scattered light at an angle of 173°. A titration routine was formulated consisting of 12 independent measurements with a 2-min delay after each. The calculated amount of 7 solution was added to the Aβ after every second measurement. During the titration, the molar quantity of 7 varied between 0–35 µM. For a single measurement, the correlation function and distribution of the apparent hydrodynamic diameter (dh) over the scattered intensity of the particles were determined on the basis of 14 scans. […]

[4] = read-out: KD (ITC), given as bound, 72 μM Aβ oligomer, 288 K
[5] = read-out: KD (ITC; first binding step for 7, single stage for the others), 72 μM Aβ oligomer in cell, 288 K, PBS pH 7.4
[6] = 72 μM Aβ oligomer in cell, 288 K, PBS pH 7.4, read-out: KD (ITC; first binding step for 7, single stage for the others)

Row | Compound | Tight binding to the Aβ oligomer species in ITC (in words) (Aβ oligomers [2]; 72 μM Aβ oligomer) | N (ITC stoichiometry, number of binding sites for monomer; first or single stage) (Aβ oligomers [2]; 72 μM Aβ oligomer, 288 K) | Kd (Aβ oligomers [2]; [4]) [µM] | Kd (Aβ oligomers [2]; [5]) [µM] | Kd (Aβ oligomers [2]; [6]) [µM] | other results
1 | Aβ(1–42) oligomer: synaptotoxic Aβ(1–42) oligomers prepared from Ser26 depsipeptide iso-Aβ(1–42) at pH 7.4 [reference compound] |  |  |  |  |  | LTP (potentiation) with Aβ(1–42) oligomer alone ([1]; 720 nM Aβ(1–42) oligomer, untreated slices 175±5%): 128±5%
2 | N=C(N)NCCC[C@@H](CC(=O)N[C@H]1CCCC[C@@H]1C(=O)N[C@@H](CC(=O)O)CC(=O)N[C@H]1CCCC[C@@H]1C(=O)N[C@H]1CCCC[C@@H]1C(=O)NCC(=O)NCC(=O)N[C@@H](CSC1CC(=O)N(CCC(=O)NCCNC(=O)CCN(CCC(=O)NCCNC(=O)CCN2C(=O)CC(SC[C@H](NC(=O)CNC(=O)CNC(=O)[C@H]3CCCC[C@@H]3NC(=O)[C@H]3CCCC[C@@H]3NC(=O)C[C@H](CC(=O)O)NC(=O)[C@H]3CCCC[C@@H]3NC(=O)C[C@H](CCCNC(=N)N)NC(=O)[C@H]3CCCC[C@@H]3N)C(N)=O)C2=O)CCN(CCC(=O)NCCNC(=O)CCN2C(=O)CC(SC[C@H](NC(=O)CNC(=O)CNC(=O)[C@H]3CCCC[C@@H]3NC(=O)[C@H]3CCCC[C@@H]3NC(=O)C[C@H](CC(=O)O)NC(=O)[C@H]3CCCC[C@@H]3NC(=O)C[C@H](CCCNC(=N)N)NC(=O)[C@H]3CCCC[C@@H]3N)C(N)=O)C2=O)CCC(=O)NCCNC(=O)CCN2C(=O)CC(SC[C@H](NC(=O)CNC(=O)CNC(=O)[C@H]3CCCC[C@@H]3NC(=O)[C@H]3CCCC[C@@H]3NC(=O)C[C@H](CC(=O)O)NC(=O)[C@H]3CCCC[C@@H]3NC(=O)C[C@H](CCCNC(=N)N)NC(=O)[C@H]3CCCC[C@@H]3N)C(N)=O)C2=O)C1=O)C(N)=O)NC(=O)[C@H]1CCCC[C@@H]1N (stereo partly drawn) [Compound 10] | did not reveal any tight binding | 0.10 | > 2 | 2.75 ± 0.301 |  | 
3 | 11: 6 coupled to the G0-PAMAM template; negative control with Gly7 tentacles (GGGGGGGC-NH2; not fully specified (residue 8); also: coupled to tetravalent G0-PAMAM template) [Compound 11] | the curve fitting did not converge; also recorded: did not reveal any tight binding |  |  |  |  | LTP (potentiation) with Aβ(1–42) oligomers and ligand together ([1]; 720 nM Aβ(1–42) oligomers + 950 nM ligand, 180 min after LTP induction, mean ±SEM): 130±3%; LTP (potentiation) with ligand alone ([1]; 950 nM ligand, no Aβ oligomers, mean ±SEM): 200±14%
4 | N=C(N)NCCC[C@@H](CC(=O)N[C@H]1CCCC[C@@H]1C(=O)N[C@H]1CCCC[C@@H]1C(=O)N[C@@H](CC(=O)O)CC(=O)N[C@H]1CCCC[C@@H]1C(=O)NCC(=O)NCC(=O)N[C@@H](CSC1CC(=O)N(CCCCN2C(=O)CC(SC[C@H](NC(=O)CNC(=O)CNC(=O)[C@H]3CCCC[C@@H]3NC(=O)C[C@H](CC(=O)O)NC(=O)[C@H]3CCCC[C@@H]3NC(=O)[C@H]3CCCC[C@@H]3NC(=O)C[C@H](CCCNC(=N)N)NC(=O)[C@H]3CCCC[C@@H]3N)C(N)=O)C2=O)C1=O)C(N)=O)NC(=O)[C@H]1CCCC[C@@H]1N (stereo partly drawn) [Compound 8] |  |  |  |  | 0.721 ± 0.12 | Rescue of LTP from toxic Aβ oligomers (in words) ([1]; 720 nM Aβ(1–42) oligomers + 950 nM ligand): No rescue from the toxic Aβ oligomers was observed; Concentration-dependent precipitation of Aβ oligomers during titration (ITC/DLS) (Aβ oligomers [3]): Neither 8 nor 1 led to concentration-dependent precipitation; ΔHb (ITC; first binding step for 7, single stage for 8) (Aβ oligomers [2]; 72 μM Aβ oligomer, 288 K): 1.1 ± 0.12 kcal/mol
5 | NC(=O)[C@H](CSC1CC(=O)N(CCC(=O)NCCNC(=O)CCN(CCC(=O)NCCNC(=O)CCN2C(=O)CC(SC[C@H](NC(=O)CNC(=O)CNC(=O)[C@H]3CCCC[C@@H]3NC(=O)C[C@H](CO)NC(=O)[C@H]3CCCC[C@@H]3NC(=O)[C@H]3CCCC[C@@H]3NC(=O)C[C@H](CO)NC(=O)[C@H]3CCCC[C@@H]3N)C(N)=O)C2=O)CCN(CCC(=O)NCCNC(=O)CCN2C(=O)CC(SC[C@H](NC(=O)CNC(=O)CNC(=O)[C@H]3CCCC[C@@H]3NC(=O)C[C@H](CO)NC(=O)[C@H]3CCCC[C@@H]3NC(=O)[C@H]3CCCC[C@@H]3NC(=O)C[C@H](CO)NC(=O)[C@H]3CCCC[C@@H]3N)C(N)=O)C2=O)CCC(=O)NCCNC(=O)CCN2C(=O)CC(SC[C@H](NC(=O)CNC(=O)CNC(=O)[C@H]3CCCC[C@@H]3NC(=O)C[C@H](CO)NC(=O)[C@H]3CCCC[C@@H]3NC(=O)[C@H]3CCCC[C@@H]3NC(=O)C[C@H](CO)NC(=O)[C@H]3CCCC[C@@H]3N)C(N)=O)C2=O)C1=O)NC(=O)CNC(=O)CNC(=O)[C@H]1CCCC[C@@H]1NC(=O)C[C@H](CO)NC(=O)[C@H]1CCCC[C@@H]1NC(=O)[C@H]1CCCC[C@@H]1NC(=O)C[C@H](CO)NC(=O)[C@H]1CCCC[C@@H]1N (stereo partly drawn) [Compound 9] | did not reveal any tight binding | 0.03 | > 2 | 2.24 ± 0.198 |  | 
6 | N=C(N)NCCC[C@@H](CC(=O)N[C@H]1CCCC[C@@H]1C(=O)N[C@H]1CCCC[C@@H]1C(=O)N[C@@H](CC(=O)O)CC(=O)N[C@H]1CCCC[C@@H]1C(N)=O)NC(=O)[C@H]1CCCC[C@@H]1N [Compound 1] |  |  |  |  | 2.38 ± 0.214 | Kd (Aβ oligomers [2]; 72 μM Aβ oligomer, 288 K, read-out: KD (ITC), given as bound): > 2 µM

From article PMC3408453, “A Foldamer-Dendrimer Conjugate Neutralizes Synaptotoxic β-Amyloid Oligomers” (PLoS ONE, 2012)
